Experiments:
[1] = system: fungal vaginitis; details: anti-fungal drug alone; cited from earlier work
[2] = system: Candida albicans; assay: Growth of Candida albicans in broths with or without Fluconazole, Gram-stained smears of cultured broths; type: cell-based; details: 48 hours incubation, Fluconazole 0.005% in experiment tubes
Description: Broths: Four sterilized broths were prepared separately according to following formula: • A. Sucrose 0.25%, yeast extract powder 0.15%, glutamic acid 0.4%, aspartic acid 0.4%, isoleucine 0.4%, proline 0.4%, phenylalanine 0.4%, Fluconazole, 0.005%, distilled water, pH adjusted to 6.5 • B. Sucrose 0.25%, yeast extract powder 0.15%, glutamic acid 0.08%, aspartic acid 0.08%, isoleucine 0.08%, proline 0.08%, phenylalanine 0.08%, Fluconazole, 0.005%, distilled water, pH adjusted to 6.5 • C. Control-A broth: Sucrose 0.25%, yeast extract powder 0.15%, glutamic acid 0.4%, aspartic acid 0.4%, isoleucine 0.4%, proline 0.4%, phenylalanine 0.4%, distilled water, pH adjusted to 6.5 • D. Control-B broth: Sucrose 0.25%, yeast extract powder 0.15%, glutamic acid 0.08%, aspartic acid 0.08%, isoleucine 0.08%, proline 0.08%, phenylalanine 0.08%, distilled water, pH adjusted to 6.5 Lactobacillus suspensions: Two lactobacillus suspensions were prepared separately from each of the clinical isolated L. acidophilus and L. crispatus strains. Candida suspension: One Candida suspension was prepared from a clinically isolated Candida albicans strain. Grouping: two groups of tubes were divided and each group had four tubes, two experimental tubes and two control tubes. Group A contained 3 ml of A-broth and Group B contained 3 ml of B-broth. […]

Row | Compound | curative rate [1] | growth of Candida albicans / yeast-like organisms in cultured broths [2]
1 | Mikostatin | 75-80% | 
2 | OC(Cn1cncn1)(Cn1cncn1)c1ccc(F)cc1F [Fluconazole] |  | inhibited
